Measurements as given in patent EP0222578A2, “Use of cyclic somatostatin analogues in the treatment of immediate hypersensitivity diseases” (Merck & Co., Inc., priority 1985, dated 1987).

Experiments:
[1] = test system: Antigen-Induced Dyspnea in Inbred Rats; experiment: Antigen-induced dyspnea in sensitized inbred asthmatic rats challenged with aerosolized egg albumin; assay type: in vivo; conditions: for Duration of Dyspnea in Minutes (Mean±S.D.) n=6/group: 1 mg/kg s.c. 1 hour before antigen challenge; for Inhibition %: inhibition of duration of dyspnea vs vehicle control, 1 mg/kg s.c. 1 hour
Excerpt: Sensitized inbred "asthmatic rats" challenged with aerosolized antigen respond with symptoms of continuous dyspnea which is partly mediated by serotonin. […] These rats differed from normal rats in that they have nonspecific bronchial hyperreactivity to a number of bronchoconstrictor agents (Brunet et al., J. Immun., 131, 434-438 (1983)].
• (1) Animals: Rats were obtained from an inbred line of asthmatic rats that were developed and maintained in local laboratories and later at a local farm. Male and female rats were used between 10-12 weeks of age. Their weights ranged from 220-240 gm (females) and 350-400 gm (males). Rats were matched by sex and littermates between the various treatment groups. • (2) Materials: Egg albumin (EA), grade V, crystallized and lyophilized (Sigma Chemical Co., St. Louis), aluminum hydroxide (Reheis Chemical Company, Chicago), and methysergide bimaleate (Sandoz Ltd., Basel, Switzerland). • (3) Apparatus: The challenge and subsequent respiratory recordings were carried out in a clear plastic box with internal dimensions 10 x 6 x 4 inches. The top of the box was removable; in use, it was held firmly in place by four clamps and an airtight seal was maintained by a soft rubber gasket. Through the centre of each end of the chamber a Devilbiss nebulizer (No. 40) was inserted via an airtight seal and each end of the box was also equipped with an outlet. A Fleisch No. 0000 pneumotachograph was inserted into one end of the box and coupled to a Grass volumetric pressure transducer (PT5-A) which was then connected to a Beckman Type R Dynograph through appropriate couplers. While aerosolizing the antigen, the outlets were open and the pneumotachograph was isolated from the chamber. The outlets were closed and the pneumotachograph and the chamber were connected during the recordings of the respiratory patterns. For challenge, 2 ml of 3% solution of antigen in saline was placed into each nebulizer and the aerosol was generated with air from a small Potter diaphragm pump operating at 10 psi and a flow of 8 litre/minute. • (4) Procedure: Rats were sensitized by injecting (s.c.) 1 ml of suspension containing 1 mg egg albumin (EA) and 200 mg aluminum hydroxide in saline. They were used on day 13 post sensitization. Rats were exposed to aerosol of 3% EA in saline for exatly 1 minute, then their respiratory profiles were recorded for an additional 30 minutes. The duration of continuous dyspnea was measured from the respiratory recordings.
Form.I-8) was administered subcutaneously as a solution in 5% mannitol 1 hour prior to challenge with antigen. Methysergide bimaleate was dissolved in saline and given intravenously at dose of 3 ug/kg 5 minutes before challenge. Dose volume employed for subcutaneous treatments was 2 ml/kg and for i.v. treatments 1 ml/kg. Control groups of rats (n-6) were treated subcutaneously with drug vehicle (5% mannitol).
The sensitivity of various drug treatments were determined in terms of the decrease in duration of dyspnea in comparison with a group of vehicle- treated controls. Comparisons between groups were made using the Student's t-test.

[2] = test system: Antigen-Induced Dyspnea in Inbred Rats; conditions: 3 µg/kg i.v. before challenge; background statement in the introduction; cited from earlier work

Compound | Duration of Dyspnea in Minutes (Mean±S.D.) n=6/group ([1]; + Methysergide (3 µg/kg i.v. 5 minutes prior to challenge)) [min] | Duration of Dyspnea in Minutes (Mean±S.D.) n=6/group ([1]; - Methysergide) [min] | activity on duration of antigen-induced dyspnea ([1]; 1 mg/kg s.c., without methysergide to block the serotonin component) | Inhibition % ([1]; + Methysergide (3 µg/kg i.v. 5 minutes prior to challenge), p < 0.01) [p < 0.01%] | Inhibition % ([1]; + Methysergide (3 µg/kg i.v. 5 minutes prior to challenge); p < 0.01; listed as Form.1-8)) [%] | Inhibition % ([1]; - Methysergide) [%] | serotonin component of continuous dyspnea [2]
CC(C)[C@@H]1NC(=O)[C@H](CCCCN)NC(=O)[C@@H](Cc2c[nH]c3ccccc23)NC(=O)[C@H](Cc2ccc(O)cc2)NC(=O)[C@H](C)N(C)C(=O)[C@H](Cc2ccccc2)NC1=O [Form.I-8), Cycle-(N-Me-Ala-Tyr-D-Trp-Lys-Val-Phe)] | 5.7 ± 3.9 | 18.2 ± 3.6 | failed to produce activity | 57 | 57 | 0 | –
CC[C@@H](CO)NC(=O)[C@@H]1C=C2c3cccc4c3c(cn4C)C[C@H]2N(C)C1 [methysergide, methysergide bimaleate] | – | – | – | – | – | – | completely blocked
